According to US4910208A, “Method of inhibiting leukotriene biosynthesis by oral administration of p-aminophenols or derivatives thereof” (E. R. Squibb & Sons, Inc., priority 1988, dated 1990):
Like-named read-outs stand apart in the source and are kept apart here.

Experiments:
[1] = tested on: SRS-mediated bronchoconstriction; experiment: Standard assay for inhibitors of SRS-mediated bronchoconstriction in sensitized guinea pigs; assay type: in vivo, guinea pig (male Hartly); conditions: for ED50: Cavia porcellus, po, 1 h; for antiasthmatic activity when administered orally: oral
Protocol: Guinea pigs sensitized to ovalbumin and challenged intravenously with this antigen in the presence of the cyclooxygenase inhibitor, indomethacin (IM), an antihistamine, methapyriline, and a beta-antagonist, propranolol,undergo a delayed (3-13 minutes) bronchospasm, presumed due to the synthesis and release of SRS (leukotriene C, D, and E). A Buxco respiratory mechanics analyzer is used to evaluate the in vivo efficacy of inhibitors of the lipoxygenase pathway in this model of SRS-mediated bronchoconstriction. This system monitors pulmonary air flow, through use of a whole body plethysomgraph, and transpulmonary pressure, from tracheal and intrapleural catheters. Tidal volume is derived from the flow signal by integration, and airway resistance (R) and dynamic compliance (^C dyn) are continuously computed by the system from the primary flow, volume, and pressure parameters. In addition, the system continuously monitors blood pressure and heart rate.
Male Hartly guinea pigs (200 g) ar sensitized by injecting ovalbumin (OA) (10 mg/kg) (each injection also contains 16 mg Amphojel) ip o days 0 and 2. These animals are normally used on days 10-18 following initial sensitization.
On the test day animals are anesthetized by ip injection of urethane (1.2-1.5 g/kg. The jugular vein and carotid artery are catheterized using intramedic PR50 tubing. The trachea is catheterized using intramedic PE240 tubing. Spontaneous respiration is arrested by injecting succinyl choline (2.0 mg/kg, iv) into the jugular vein, and the animal is artificially respirated at 48 breaths/minute with a volume of 4.0 ml/breath. Intramedic PE200 tubing is inserted through the chest wall into the intrapleural space, and the tracheal (by sidearm attachment) and intrapleural cannulas are attached to a single pressure transducer in order to obtain the transpulmonary pressure. The standard protocol requires an initial injection of indomethacin (meglumine salt) (10 mg/kg, iv). Five minutes later antihistamine (methapyrilene, 2 mg/kg, iv) is given, followed one minute later by propranolol (0.1 mg/kg, iv) to induce leukotriene induced bronchoconstriction with no histamine-induced bronchoconstriction and no beta-agonistic bronchoconstriction. Respiratory parameters are then allowed to stabilize for 5-15 minutes. Drugs are tested for oral activity by giving the compound by gavage to 18 hour fasted animals one hour prior to anesthetization. At restabilization, base lines are recorded by the computer for all parameters. To induce bronchoconstriction, a challenge dose of OA (0.4 mg/kg, iv) is given.
Results are expressed as % of baseline values after antigen challenge for R and ^C dyn, and percent inhibition is calculated by comparing % changes in baseline values between control (vehicle) and drug treated test groups.
Statistical significance is determined using a two tailed, unpaired T-test. Drug effects with p<0.05 will be considered significant.
Test compounds were evaluated for their ability to inhibit SRS-mediated changes in dynamic compliance (^C dyn) and resistance (R) as compared to the medicated (indomethacin-methapyrilenepropranolol) control group.

[2] = tested on: SRS-mediated bronchoconstriction; experiment: as above; assay type: in vivo, guinea pig (male Hartly); conditions: 10 mg/kg, iv less than one minute before OA challenge
[3] = 5.0 mg/kg P.O., one hour before i.v. antigen challenge
[4] = 12.5 mg/kg P.O., one hour before i.v. antigen challenge
[5] = 25.0 mg/kg P.O., one hour before i.v. antigen challenge
[6] = 50.0 mg/kg P.O., one hour before i.v. antigen challenge
[7] = P.O., one hour before i.v. antigen challenge, read-out: ED50^Cdyn (dose producing 50% inhibition of SRS-mediated changes in dynamic compliance)
[8] = P.O., one hour before i.v. antigen challenge, read-out: ED50^R (dose producing 50% inhibition of SRS-mediated changes in resistance)
[9] = 3.0 mg/kg P.O., one hour before i.v. antigen challenge
[10] = 6.0 mg/kg P.O., one hour before i.v. antigen challenge
[11] = 9.0 mg/kg P.O., one hour before i.v. antigen challenge

Compound	Dynamic Compliance (Cdyn), % of baseline following antigen challenge (mean ± S.E.) [1, 4]	Dynamic Compliance (Cdyn), Inhibition (%) [1, 4] [%]	Resistance (R), % of baseline following antigen challenge (mean ± S.E.) [1, 4]	Resistance (R), Inhibition (%) [1, 4] [%]	Dynamic Compliance (Cdyn), % of baseline following antigen challenge (mean ± S.E.) [1, 5]	Dynamic Compliance (Cdyn), Inhibition (%) [1, 5] [%]	Resistance (R), % of baseline following antigen challenge (mean ± S.E.) [1, 5]	Resistance (R), Inhibition (%) [1, 5] [%]	Dynamic Compliance (Cdyn), % of baseline following antigen challenge (mean ± S.E.) [1, 6]	Dynamic Compliance (Cdyn), Inhibition (%) [1, 6] [%]	Resistance (R), % of baseline following antigen challenge (mean ± S.E.) [1, 6]	Resistance (R), Inhibition (%) [1, 6] [%]	ED50 [1, 7] [mg/kg]	ED50 [1, 8] [mg/kg]	antiasthmatic activity when administered orally [1]	also measured
COc1ccc2cc(Nc3ccc(O)cc3)ccc2c1 [Example 2, 4-[(6-Methoxy-2-naphthyl)amino]phenol]	44 ± 5 % of Baseline	33	231 ± 39 % of Baseline	57	62 ± 7 % of Baseline	52	194 ± 42 % of Baseline	69	66 ± 4 % of Baseline	57	149 ± 11 % of Baseline	84	23.8	6	exhibit antiasthmatic activity	Dynamic Compliance (Cdyn), % of baseline following antigen challenge (mean ± S.E.) [1, 3]: 23 ± 7 % of Baseline; Dynamic Compliance (Cdyn), Inhibition (%) [1, 3]: 3%; Resistance (R), % of baseline following antigen challenge (mean ± S.E.) [1, 3]: 335 ± 74 % of Baseline; Resistance (R), Inhibition (%) [1, 3]: 23%; oral activity ([1]; P.O., one hour before antigen challenge): orally active; ED50^Cdyn (dose producing 50% inhibition of SRS-mediated changes in dynamic compliance) ([1]; P.O., one hour before i.v. antigen challenge): 23.8(14.1-51.7) mg/kg
COc1ccc2cc(N(C)c3ccc(O)cc3)ccc2c1 [Example 17]	64 ± 7 % of Baseline	56	136 ± 10 % of Baseline	88	57 ± 10 % of Baseline	47	149 ± 23 % of Baseline	82	–	–	–	–	6 to 9	6 to 9	exhibit antiasthmatic activity	Dynamic Compliance (Cdyn), % of baseline following antigen challenge (mean ± S.E.) [1, 9]: 19 ± 11 % of Baseline; Dynamic Compliance (Cdyn), Inhibition (%) [1, 9]: 0%; Resistance (R), % of baseline following antigen challenge (mean ± S.E.) [1, 9]: 467 ± 134 % of Baseline; Resistance (R), Inhibition (%) [1, 9]: 0%; Dynamic Compliance (Cdyn), % of baseline following antigen challenge (mean ± S.E.) [1, 10]: 31 ± 20 % of Baseline; Dynamic Compliance (Cdyn), Inhibition (%) [1, 10]: 15%; Resistance (R), % of baseline following antigen challenge (mean ± S.E.) [1, 10]: 374 ± 132 % of Baseline; Resistance (R), Inhibition (%) [1, 10]: 1%; Dynamic Compliance (Cdyn), % of baseline following antigen challenge (mean ± S.E.) [1, 11]: 64 ± 8 % of Baseline; Dynamic Compliance (Cdyn), Inhibition (%) [1, 11]: 56%; Resistance (R), % of baseline following antigen challenge (mean ± S.E.) [1, 11]: 141 ± 28 % of Baseline; Resistance (R), Inhibition (%) [1, 11]: 85%; inhibition of antigen-induced bronchoconstriction ([1]; PO one hour before antigen challenge): significantly inhibited
CCCc1c(OCC(O)COc2ccc3c(=O)cc(C(=O)O)oc3c2CCC)ccc(C(C)=O)c1O (stereo not shown) [FPL-55712]	–	–	–	–	–	–	–	–	–	–	–	–	–	–	–	inhibition of bronchoconstriction as measured by effects on R and Cdyn [2]: 100%
COc1ccc(Nc2ccc(O)cc2)c(CO)c1 [SQ 30,624, 2-[(4-Hydroxyphenyl)amino]-5-methoxybenzenemethanol, reference compound]	–	–	–	–	–	–	–	–	4 ± 3 % of Baseline	0	386 ± 64 % of Baseline	15	–	–	did not have antiasthmatic activity	oral activity ([1]; dose of 50 mg/kg P.O.): orally inactive
